Measured values as given in patent US10508113B2, “Inhibitors of tyrosine kinase 2 mediated signaling” (AbbVie Inc., priority 2018, dated 2019).

Biological target: T1, Jak2 (Homo sapiens, UniProt O60674)
T1 construct: Cell Type: UT7 cells engineered to express the erythropoietin (EPO) receptor; endogenous in cells; host or cells: UT7 cells engineered to express the EPO receptor
Test: Jak2 (PSTATS UT7) alpha screen assay: inhibition of EPO induced phosphorylation of STAT5 in UT7 cells
Assay type: cell-based
Details: for EC50: EPO induced pSTAT5, UT7 cells; for Tyk2 selectivity over Jak2: calculated from tabulated EC50 data (Jak2 / Tyk2)
Summary of the method: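 EPO-receptor-expressing UT7 cells, starved overnight of EPO, preincubated 30 min at 37 °C with compound (8-point 1:3, top 25 µM final), then stimulated with 1 nM EPO for 20 min. After lysis, pSTAT5 (Tyr694/699) measured by SureFire AlphaScreen; EC50 from dose-response of percent activity.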

T1 sequence (O60674 whole entry): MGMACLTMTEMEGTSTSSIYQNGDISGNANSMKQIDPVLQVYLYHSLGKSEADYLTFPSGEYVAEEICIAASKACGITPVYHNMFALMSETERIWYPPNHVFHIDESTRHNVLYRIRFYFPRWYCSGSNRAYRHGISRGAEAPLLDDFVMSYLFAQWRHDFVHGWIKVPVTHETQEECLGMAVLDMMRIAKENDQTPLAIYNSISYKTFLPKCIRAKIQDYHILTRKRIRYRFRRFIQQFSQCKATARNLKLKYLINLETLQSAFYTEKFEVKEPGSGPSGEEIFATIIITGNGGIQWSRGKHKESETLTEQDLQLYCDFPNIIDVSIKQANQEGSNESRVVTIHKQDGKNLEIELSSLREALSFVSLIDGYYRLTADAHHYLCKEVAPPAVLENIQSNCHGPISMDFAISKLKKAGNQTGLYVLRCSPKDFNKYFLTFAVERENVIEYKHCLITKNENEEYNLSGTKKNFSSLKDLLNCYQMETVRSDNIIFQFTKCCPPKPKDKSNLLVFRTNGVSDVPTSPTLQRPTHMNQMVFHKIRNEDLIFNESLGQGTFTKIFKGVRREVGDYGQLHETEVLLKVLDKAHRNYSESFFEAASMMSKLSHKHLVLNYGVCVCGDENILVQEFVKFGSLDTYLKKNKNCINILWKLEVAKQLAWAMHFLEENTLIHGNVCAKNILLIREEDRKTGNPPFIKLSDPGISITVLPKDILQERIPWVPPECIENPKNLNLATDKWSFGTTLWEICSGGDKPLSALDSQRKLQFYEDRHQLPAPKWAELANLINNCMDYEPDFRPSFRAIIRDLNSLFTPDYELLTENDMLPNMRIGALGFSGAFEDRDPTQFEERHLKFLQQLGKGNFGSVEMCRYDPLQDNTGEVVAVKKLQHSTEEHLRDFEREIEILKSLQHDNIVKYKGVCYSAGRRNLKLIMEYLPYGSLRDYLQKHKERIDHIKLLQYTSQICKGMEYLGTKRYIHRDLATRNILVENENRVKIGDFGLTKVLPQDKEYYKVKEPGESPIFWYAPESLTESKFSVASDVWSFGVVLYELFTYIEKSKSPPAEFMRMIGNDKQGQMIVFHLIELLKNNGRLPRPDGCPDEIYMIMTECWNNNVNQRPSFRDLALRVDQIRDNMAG

In the case of COCc1cc(-c2cn(C)c3cnc(NC(C)=O)cc23)nc([C@]2([C@H](C)O)CCOC2)c1 [Example 22.3, N-(3-(6-((R)-3-((S)-1-hydroxyethyl)tetrahydrofuran-3-yl)-4-(methoxymethyl)pyridin-2-yl)-1-methyl-1H-pyrrolo[2,3-c]pyridin-5-yl)acetamide], the EC50 is reported as greater than 25 µM and the “Tyk2 selectivity over Jak2” value is reported as >170-fold.

For COCc1cc(-c2cn(C)c3cnc(NC(C)=O)cc23)nc([C@]2([C@@H](C)O)CCOC2)c1 [Example 22.4, N-(3-(6-((R)-3-((R)-1-hydroxyethyl)tetrahydrofuran-3-yl)-4-(methoxymethyl)pyridin-2-yl)-1-methyl-1H-pyrrolo[2,3-c]pyridin-5-yl)acetamide], the EC50 was greater than 25 µM and the “Tyk2 selectivity over Jak2” value was >223-fold.
